Reference: article PMC10060354, “Discovery of a small molecule ligand of FRS2 that inhibits invasion and tumor growth” (Cellular Oncology, 2022)
Several values for one entry are separate records, joined by “and”; a condition that tells them apart may be missing. Identical values can stand only once. Like-named read-outs stand apart in the source and are kept apart here.

Columns and labels:
[1] = tested on: DAOY cells; assay: Spheroid invasion assay (SIA), bFGF-induced collagen I invasion; assay type: cell-based, human; settings: DAOY cells, n = 3 technical replicas, read-out: EC50 for the inhibition of bFGF-induced collagen I invasion
Description: (§1) 1000—2500 cells/well in 100 μl were seeded in 96 well Corning® Spheroid microplate (CLS4520, Sigma-Aldrich) or in cell-repellent 96 well microplate (650,790, Greiner Bio-one). SIA and analysis was performed as described before. In brief: After spheroid formation (24 – 72 h after seeding), 70 µl medium was removed and replaced with the collagen mixture (2.5 mg/ml Pure Col Collagen I (Advanced Biomatrix)), DMEM 1x (from 10 × stock, Sigma, D2429) and 0.4% Sodium bicarbonate (Sigma, S8761)), resulting in a final collagen concentration of 1.75 mg/ml. Embedded spheroids were stimulated with bFGF (100 ng/ml if not otherwise stated), HGF (30 ng /ml) or EGF (20 ng/ml) and distance of invaded cells quantified 24 – 48 h after embedding. Compounds and BGJ398 were added in Dimethylsulfoxid (DMSO) and corresponding DMSO concentrations were used in control samples.

[2] = biological target: T1, FRS2_PTB (Homo sapiens, UniProt Q8WU20); assay: nano differential scanning fluorimetry (nanoDSF); assay type: binding; settings: 500 μM ligand
T1 construct: FRS2-PTB 11-140aa; 6xHis; made in house; host or cells: E. coli BL21 (DE3)
T1 sequence (Q8WU20 11-140): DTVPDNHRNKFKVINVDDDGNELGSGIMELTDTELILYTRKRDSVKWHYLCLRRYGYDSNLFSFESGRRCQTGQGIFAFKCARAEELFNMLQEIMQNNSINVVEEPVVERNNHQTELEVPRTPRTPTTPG
Description: Assay establishment and pilot nanoDSF experiments were performed with a Tycho® system. Each experiment was performed by mixing the protein and ligand of interest at a 1:1 ratio and subsequent incubation for 15–30 min at room temperature. Controls of protein alone and ligand alone in identical buffer compositions as for the complex were measured accordingly. The temperature gradient ranged from 35 to 95 °C, and the heating rate was 30 °C/min. Inflection temperatures TI were calculated from the first derivative of the spectra obtained at the ratio of the signals at 350 nm to those at 330 nm. ΔTI of a complex was calculated as following: ΔTI,complex = TI,complex – TI,protein.
The in-built software version 1.1.5.668 (NanoTemper Technologies, Munich, Germany) and Microsoft Office Excel 365 (Microsoft Corp., Seattle, USA) was used for data analysis. Data was plotted with GraphPad Prism vers. 8.3.0 (GraphPad Software, San Diego, USA).
Purified FRS2_PTB or GB1_FRS2_PTB protein tagged with 6 × Histidine residues and the B1 immunoglobulin binding domain of the streptococcal protein G (GB1) were diluted in the protein buffer (100 mM sodium phosphate, 50 mM NaCl, 0.5 mM EDTA, 50 mM arginine, 1 mM TCEP, pH 7.0) to 30 μM, GB-1 to 40 μM. FGFR_PEP, compounds or paracetamol (PARA) as negative control were dissolved at 1 mM in the protein buffer supplemented with 10% DMSO. Compound and protein were mixed at 1:1 volume ratio yielding a final concentration of 15 μM and 20 μM for FRS2_PTB/GB1_FRS2_PTB and GB1, respectively, as well as 500 μM for FGFR_PEP or compounds. The mixture was incubated for 15 min. Each compound was measured in triplicates. Protein controls were measured in six replicates in the beginning. The quality of the screen was assessed by the Z-factor. nanoDSF validation studies were performed on a Prometheus® system in high sensitivity capillaries. Samples were heated with 1 °C/min from 20 to 95 °C. Each compound was measured in triplicates. GB1-FRS2_PTB and GB1 were diluted in the protein buffer (100 mM sodium phosphate, 50 mM NaCl, 0.5 mM EDTA, 50 mM arginine, 1 mM TCEP, pH 7.0) to 30 μM. Compounds 3.3, 3.4, 3.18 as well as the 3.18 analogues were dissolved in 100% DMSO at 50 or 100 mM and further diluted to 1 mM with a final DMSO-concentration of 100%. FGFR_PEP was dissolved at 1 mM in the protein buffer supplemented with 10% DMSO. Compound and protein were mixed at 1:1 volume ratio yielding final concentrations of 15 μM protein and 500 μM for the compounds. FGFR_PEP was measured against both GB1-FRS2_PTB and GB1, all other compounds only against GB1-FRS2_PTB. The mixture was incubated for 15 min before measurement. The data was analyzed for both the ratio of signals at 330 and 350 nm and at 350 nm alone. […]

[3] = biological target: T2, GB1-FRS2_PTB:FGFR_PEP (Homo sapiens, UniProt Q8WU20); assay: nanoDSF competition assay with the FGFR peptide; assay type: binding; settings: PTB domain:FGFR peptide 1:5; 500 μM compound
T2 construct: FRS2-PTB 11-140aa; 6xHis (N); made in house; host or cells: E. coli BL21 (DE3) for the protein
T2 sequence (Q8WU20 11-140): T1 sequence (Q8WU20 11-140)
Description: Purified FRS2_PTB or GB1_FRS2_PTB protein tagged with 6 × Histidine residues and the B1 immunoglobulin binding domain of the streptococcal protein G (GB1) were diluted in the protein buffer (100 mM sodium phosphate, 50 mM NaCl, 0.5 mM EDTA, 50 mM arginine, 1 mM TCEP, pH 7.0) to 30 μM, GB-1 to 40 μM. FGFR_PEP, compounds or paracetamol (PARA) as negative control were dissolved at 1 mM in the protein buffer supplemented with 10% DMSO. Compound and protein were mixed at 1:1 volume ratio yielding a final concentration of 15 μM and 20 μM for FRS2_PTB/GB1_FRS2_PTB and GB1, respectively, as well as 500 μM for FGFR_PEP or compounds. The mixture was incubated for 15 min. Each compound was measured in triplicates. Protein controls were measured in six replicates in the beginning. The quality of the screen was assessed by the Z-factor. nanoDSF validation studies were performed on a Prometheus® system in high sensitivity capillaries. Samples were heated with 1 °C/min from 20 to 95 °C. Each compound was measured in triplicates. GB1-FRS2_PTB and GB1 were diluted in the protein buffer (100 mM sodium phosphate, 50 mM NaCl, 0.5 mM EDTA, 50 mM arginine, 1 mM TCEP, pH 7.0) to 30 μM. Compounds 3.3, 3.4, 3.18 as well as the 3.18 analogues were dissolved in 100% DMSO at 50 or 100 mM and further diluted to 1 mM with a final […]. FGFR_PEP was dissolved at 1 mM in the protein buffer supplemented with 10% DMSO. Compound and protein were mixed at 1:1 volume ratio yielding final concentrations of 15 μM protein and 500 μM for the compounds. FGFR_PEP was measured against both GB1-FRS2_PTB and GB1, all other compounds only against GB1-FRS2_PTB. The mixture was incubated for 15 min before measurement. The data was analyzed for both the ratio of signals at 330 and 350 nm and at 350 nm alone. For the competition assays, the PTB domain and the FGFR peptide were mixed at a 1:5 ratio, and ligand competition was assayed in the presence of 500 μM compound.

[4] = tested on: DAOY cells; assay: SIA, EGF-induced cell invasion; assay type: cell-based, human; settings: 10 µM
Description: as §1

[5] = biological target: T3, GB1-FRS2-PTB (Homo sapiens, UniProt Q8WU20); assay: Microscale thermophoresis (MST); assay type: binding
T3 construct: FRS2-PTB 11-140aa; 6xHis (N); made in house; host or cells: E. coli BL21 (DE3)
T3 sequence (Q8WU20 11-140): T1 sequence (Q8WU20 11-140)
Description: Protein labeling for MST was performed with the 2nd Generation BLUE-NHS dye. GB1-FRS2_PTB- was labelled at 20 μM with 60 μM dye and incubated for 30 min in the dark at room temperature. The labelling was performed in the protein buffer without arginine supplementation. It was rebuffered to protein buffer (100 mM sodium phosphate, 50 mM NaCl, 0.5 mM EDTA, 50 mM arginine, 1 mM TCEP, pH 7.0). The dye was subsequently removed by gravitational flow chromatography and the protein concentration determined by UV-spectroscopy. The assay was established with the FGFR_PEP. […] A total volume of 10 μl of 50 nM labelled protein was added to 10 μl of the peptide dilution series for a final labelled protein concentration of 25 nM. The samples were incubated for 15 min at RT. […] Temperature was set to 25 °C. Each measurement was repeated twice. The interaction was measured in duplicates for the non-DMSO-supplemented buffer and in triplicates for DMSO-supplemented buffer. […] The samples were incubated for 15 min, and MST assessed as described above. Each measurement was repeated twice. The interaction was measured in two independent duplicates. […] The mixture was then measured for their initial fluorescence once. MST-experiments were performed with MO.Control vers. 1.6 (NanoTemper Technologies, Munich, Germany) and data analyzed with MO.Analysis vers. 2.3 (NanoTemper Technologies, Munich, Germany). Data was plotted with GraphPad Prism vers. 8.3.0 (GraphPad Software, San Diego, USA).

[6] = Solubility at the concentration required for the biophysical assays; assay type: physicochemical; settings: 5% DMSO

Row | EC50 [1] [µM] | EC50 ([1]; Homo sapiens, Daoy) [µM] | nanoDSF shift of the inflection point of the melting curve (ΔTm) [2] [°C] | nanoDSF competition with FGFR peptide (result in words) [3] | Kd ([5]; GB1-FRS2_PTB, read-out: KD, initial fluorescence change analysis) | binding by MST trace analysis (result in words) ([5]; signal:noise ratio > 5 counts as binding) | solubility for biophysical assays (result in words) [6] | SMILES | effect on EGF-induced cell invasion (result in words) [4]
1 | 1.29 | 1.29 | < -2 | negative shift in compound-mixed samples | 110 µM and 140 µM and 110 to 140 µM | no binding was detected | – | O=[N+]([O-])c1c(Cl)cc(O)c2c1C1C=CCC1C(C1CC=CCC1)N2 (stereo not shown) [Compound 3.18] | only moderately reduced
2 | – | – | – | negative shift in compound-mixed samples | – | – | soluble in 5% DMSO | O=[N+]([O-])c1c(Cl)cc(O)c2c1C1C=CCC1C(c1ccccc1)N2 (stereo not shown) [Compound 9] | only moderately reduced
